Source: patent publication US20220354836A1, “Equine Esomeprazole Formulations and Methods of Use” (priority 2019, published 2022)
Entries after “also recorded” stand apart in the source; their conditions may differ.

Legend:
[1] = Pharmacokinetics after multiple intramuscular doses to horses
Experimental: Eighteen adult horses were randomized into three equal treatment groups and assigned one of three doses: 2 mg/kg (1×), 6 mg/kg (3×), or 10 mg/kg (5×). Doses were administered intramuscularly. Each horse received the assigned dose three times, seven days apart. Blood samples were collected at 1, 2, 4, 6, 8, 12, 24, 36, 48, 72, 96, 120, 144 hrs after each dosing, then every 48 hours until Day 28. Esomeprazole was quantified by LC-MS/MS. Data were subjected to noncompartmental analysis.

[2] = Particle size distribution (Malvern MASTERSIZER 2000); type: physicochemical; conditions: sterilized drug substance from Shouguang Fukang Pharma Co.; average of three measurements
Experimental: Particle size distribution may be measured, for example, using a Malvern MASTERSIZER 2000 instrument. After 24 hours storage, a particle size distribution (PSD) was performed using a Malvern MASTERSIZER 2000. The measuring range of the instrument is 0.02-2000 μm, with refractive index dispersant 1.375—hexanes, obscuration range 5-20%, sample/background measurement time=1, 5000 sample/background measurement snaps, and manual stirring speed 2000 rpm.

Compound	Dose normalization of Cmax and area under the curve (kinetic linearity) ([1]; across 2, 6 and 10 mg/kg intramuscular)	Time for which drug was detectable ([1]; after the final dose in the 5× group (10 mg/kg intramuscular))	Mean half-life ([1]; horse, in vivo, im, 10 mg/kg)	half-life ([1]; horse, in vivo, im, 10 mg/kg, Mean half-life)	Tolerability ([1]; in vivo)	Absorption from the injection site ([1]; intramuscular, horses)	Injection site reaction ([1]; one horse in the 3× group (6 mg/kg intramuscular))	Median particle size [2]
COc1ccc2nc([S@@+]([O-])Cc3ncc(C)c(OC)c3C)[nH]c2c1 [esomeprazole]	linear pharmacokinetics; also recorded: Linear kinetic properties were observed	96 ± 26.29 h	12 to 24 h	11.6 to 24.5 h	well tolerated	rapidly absorbed	A single mild, self-resolving, injection site reaction	–
COc1ccc2[n-]c([S@@+]([O-])Cc3ncc(C)c(OC)c3C)nc2c1.COc1ccc2[n-]c([S@@+]([O-])Cc3ncc(C)c(OC)c3C)nc2c1.O.O.[Mg+2] [esomeprazole magnesium dihydrate]	–	–	–	–	–	–	–	2.01 μm
COc1ccc2nc([S@@+]([O-])Cc3ncc(C)c(OC)c3C)[nH]c2c1 [esomeprazole sodium]	–	–	–	–	–	–	–	18.84 μm
